Consider nine compounds from patent US9546157B2, “Asymmetric piperidinyl-substituted ureas as medicines” (Helsinn Healthcare SA, priority 2014, dated 2017).

Bounds are passed on as bounds.

A short description of series [1]: Metabolic Stability (H = Human). In kind it is in vitro ADME.
Series [2] addresses T1, GHSR1a (Homo sapiens, UniProt Q92847).
T1 construct: expressed in transfected cells; host or cells: HEK293
Description: Calcium FLIPR assay, GHSR-1a antagonism (reduction of ghrelin response). Particulars: HEK293/GHSR1a cells, ghrelin 10 nM. In kind it is cell-based. In a few lines: (§1)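 Relative fluorescence read-out (FLIPR) of intracellular calcium in HEK293/GHSR1a cells. For antagonist mode, compound and 10 nM ghrelin were co-added at t=20 sec, and inhibition of the ghrelin response over 2 minutes gave IC50. Agonist mode: compound alone at t=20 sec, response tracked 2 minutes; EC50 from dose-response.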

Series [3] deals with T1, GHSR1a. Description: Calcium FLIPR assay, GHSR-1a agonism. In kind it is cell-based. Details: Emax: unit not given here. The conditions noted are these: HEK293/GHSR1a cells. Put shortly: as §1
Series [4] can be described thus: Metabolic Stability (M = Mouse). In kind it is in vitro ADME.

T1 sequence (Q92847 whole entry): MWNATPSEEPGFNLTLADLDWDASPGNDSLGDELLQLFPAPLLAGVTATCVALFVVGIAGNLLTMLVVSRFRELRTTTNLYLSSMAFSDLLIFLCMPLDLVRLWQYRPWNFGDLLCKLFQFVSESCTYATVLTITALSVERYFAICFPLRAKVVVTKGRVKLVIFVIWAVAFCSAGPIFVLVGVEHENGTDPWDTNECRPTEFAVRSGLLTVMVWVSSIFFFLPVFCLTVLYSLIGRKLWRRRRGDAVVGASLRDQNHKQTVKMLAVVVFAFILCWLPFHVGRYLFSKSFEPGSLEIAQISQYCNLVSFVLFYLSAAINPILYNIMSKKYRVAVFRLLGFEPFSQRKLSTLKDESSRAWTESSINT

With `CC(NC(=O)N(C)C1CCN(C)CC1)c1ccc(-c2cccs2)c(Cl)c1F` (stereo not shown) [Compound H0582, 3-(1-(34-chloro-2-fluoro-4-(thiophen-2-yl)phenyl)ethyl)-1-methyl-1-(1-methylpiperidin-4-yl)urea], in series [1], the “Metabolic Stability H” value is reported as “Medium H Medium M”. The IC50 (usually the point on the concentration scale where inhibition reaches its midpoint) on GHSR1a [2] came to 15 nM. Further, at GHSR1a [3], the concentration for a half-maximal effect (EC50) (usually the concentration that produces a half-maximal response) was 20 nM and the Emax came out at 2069. The “Metabolic Stability M” value in series [4] was “Medium H Medium M”.

For the compound `CC(NC(=O)N(C)C1CCN(C)CC1)c1ccc(-c2cccc(N)c2)c2ccccc12` (stereo not shown) [Compound H0591, 3-(1-(4-(3-aminophenyl)naphthalen-1-yl)ethyl)-1-methyl-1-(1-methylpiperidin-4-yl)urea], in series [1], the “Metabolic Stability H” value is given as “Medium H Medium M”. Also, the concentration for half-maximal inhibition (IC50) at GHSR1a [2] amounted to 11 nM. The half-maximal effective concentration (EC50) at GHSR1a [3] stood at 126 nM. Besides, the “Metabolic Stability M” value in series [4] is recorded as “Medium H Medium M”.

For `CN1CCC(N(C)C(=O)NC(COCc2cccc(CO)c2)c2ccc(-c3ccsc3)c(Cl)c2Cl)CC1` (stereo not shown) [Compound H0594, 3-(1-(2,3-dichloro-4-(thiophen-3-yl)phenyl)-2-((3-(hydroxymethyl)benzyl)oxy)ethyl)-1-methyl-1-(1-methylpiperidin-4-yl)urea], in series [1], the “Metabolic Stability H” value is reported as “Poor”. Further, the IC50 on GHSR1a [2] is 54 nM. Also, the EC50 on GHSR1a [3] is > 30000 nM. In addition, the “Metabolic Stability M” value in series [4] is recorded as “Medium”.

With `CC(NC(=O)N(C)C1CCN(C)CC1)c1ccc(-c2cncs2)c2ccccc12` (stereo not shown) [Compound H0597, 1-methyl-1-(1-methylpiperidin-4-yl)-3-(1-(4-(thiazol-5-yl)naphthalen-1-yl)ethyl)urea], the “Metabolic Stability H” value in series [1] is “Poor H Poor M”. In addition, the half-inhibitory concentration (IC50) at GHSR1a [2] is 24 nM. The concentration for a half-maximal effect (EC50) at GHSR1a [3] was > 30000 nM. Further, the “Metabolic Stability M” value in series [4] is on record as “Poor H Poor M”.

On to `CC(NC(=O)N(C)C1CCN(C)CC1)c1ccc(-c2c[nH]nn2)c(Cl)c1Cl` (stereo not shown) [Compound H0604, 3-(1-(2,3-dichloro-4-(1H-1,2,3-triazol-4-yl)phenyl)ethyl)-1-methyl-1-(1-methylpiperidin-4-yl)urea], for which the “Metabolic Stability H” value in series [1] was “High H High M”. Besides, on GHSR1a [2], the half-maximal inhibitory concentration (IC50) came to 12 nM. The EC50 on GHSR1a [3] was 25 nM. Also, in series [4], the “Metabolic Stability M” value is given as “High H High M”.

For `CC(NC(=O)N(C)C1CCN(C)CC1)c1ccc(-c2cccc(C#N)c2)c(Cl)c1Cl` (stereo not shown) [Compound H0610, 3-(1-(2,3-dichloro-3′-cyano-[1,1′-biphenyl]-4-yl)ethyl)-1-methyl-1-(1-methylpiperidin-4-yl)urea], the “Metabolic Stability H” value in series [1] was “Medium H Medium M”. For the same compound, the IC50 at GHSR1a [2] came out at 101 nM. Moreover, the EC50 at GHSR1a [3] was > 30000 nM. In series [4], the “Metabolic Stability M” value is “Medium H Medium M”.

As for `CC(NC(=O)N(C)C1CCN(C)CC1)c1ccc(-c2ccc(C(N)=O)cc2)c(Cl)c1Cl` (stereo not shown) [Compound H0615, 2′,3′-dichloro-4′-(1-(3-methyl-3-(1-methylpiperidin-4-yl)ureido)ethyl)-[1,1′-biphenyl]-4-carboxamide], the “Metabolic Stability H” value in series [1] is reported as “High”. Also, the IC50 on GHSR1a [2] was 107 nM. Further, the EC50 on GHSR1a [3] was > 30000 nM. Further, the “Metabolic Stability M” value in series [4] is given as “Medium”.

With `CN1CCC(N(C)C(=O)NC(COCc2cccc(CO)c2)c2ccc(-c3cncnc3)c(Cl)c2Cl)CC1` (stereo not shown) [Compound H0620, 3-(1-(2,3-dichloro-4-(pyrimidin-5-yl)phenyl)-2-((3-(hydroxymethyl)benzyl)oxy)ethyl)-1-methyl-1-(1-methylpiperidin-4-yl)urea], the “Metabolic Stability H” value in series [1] is “Poor H Poor M”. For the same compound, the IC50 at GHSR1a [2] stood at 32 nM. In addition, at GHSR1a [3], the concentration giving a half-maximal response (EC50) is > 30000 nM. Moreover, the “Metabolic Stability M” value in series [4] is on record as “Poor H Poor M”.

`CC(NC(=O)N(C)C1CCN(C)CC1)c1ccc(-c2cnc3[nH]ncc3c2)c(Cl)c1Cl` (stereo not shown) [Compound H0623, 3-(1-(2,3-dichloro-4-(1H-pyrazolo[3,4-b]pyridin-5-yl)phenyl)ethyl)-1-methyl-1-(1-methylpiperidin-4-yl)urea]: the “Metabolic Stability H” value in series [1] is “Medium”. Moreover, the half-maximal inhibitory concentration (IC50) on GHSR1a [2] was 71 nM. In addition, the EC50 on GHSR1a [3] was > 30000 nM. For the same compound, the “Metabolic Stability M” value in series [4] is “Poor”.
